Earlier results as cited in patent publication US20080081052A1, “Topical compositions containing solubilized allantoin and related methods” (priority 2006, published 2008).

Conditions: expressed in g/100 g water @ 25 degree C; no solubilization enhancer

solubility of allantoin in water: 0.45%
SMILES: NC(=O)NC1NC(=O)NC1=O (stereo not shown) [allantoin, (2,5-dioxo-4-imidazolidinyl) urea]
